This note sets out measurements from US20040142864A1, “Crystal structure of PIM-1 kinase” (Plexxikon, Inc., priority 2002, published 2004).

The structures appear in SMILES notation. pIC50: −log10 of the molar value.

The target of the assay is PIM-1 (Homo sapiens, UniProt P11309). Nature of the assay: PY20 AlphaScreen kit kinase inhibition assay. For orientation: Alpha assays give light when donor and acceptor beads are brought close together.
PIM-1, sequence (P11309 whole entry): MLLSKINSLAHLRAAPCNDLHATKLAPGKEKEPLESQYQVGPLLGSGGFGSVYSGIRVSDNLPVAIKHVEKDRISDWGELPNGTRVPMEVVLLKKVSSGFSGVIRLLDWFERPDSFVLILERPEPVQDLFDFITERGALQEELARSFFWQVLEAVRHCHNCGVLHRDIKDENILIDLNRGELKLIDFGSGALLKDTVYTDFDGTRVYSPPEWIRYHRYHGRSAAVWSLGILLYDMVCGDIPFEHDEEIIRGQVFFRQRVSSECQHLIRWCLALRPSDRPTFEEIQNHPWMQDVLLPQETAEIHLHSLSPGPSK

As usually defined, the pIC50 is the negative decadic logarithm of the IC50, by convention in mol/L. Lower therefore signals a high IC50. `CSc1cccc(Nc2ncc3cc(-c4c(Cl)cccc4Cl)c(=O)n(C)c3n2)c1` had a pIC50 of 8.00.
